This data set is described as follows: Stability Test: storage at 60° C., 75% R.H., residual amount of the compound by HPLC. Format: physicochemical. As to the method:
The crystals of N-[1-butyl-4-[3-[3-(hydroxy)propoxy]-phenyl]-1,2-dihydro-2-oxo-1,8-naphthyridin-3-yl]-N′-(2,6-diisopropyl-4-aminophenyl)urea hydrochloride monohydrate obtained in Example 1 and amorphous N-[1-butyl-4-[3-[3-(hydroxy)propoxy]phenyl]-1,2-dihydro-2-oxo-1,8-naphthyridin-3-yl]-N′-(2,6-diisopropyl-4-aminophenyl)urea hydrochloride were stored at a temperature of 60° C. under a relative humidity (R.H.) of 75% for 4 weeks. Then, the residual amount of the compound therein was quantitatively analyzed using High Performance Liquid Chromatography (HPLC).

Structures can show the parent of a compound that is named as a salt.

In the case of `CCCCn1c(=O)c(NC(=O)Nc2c(C(C)C)cc(N)cc2C(C)C)c(-c2cccc(OCCCO)c2)c2cccnc21.Cl` [Amorphous, N-[1-butyl-4-[3-[3-(hydroxy)propoxy]phenyl]-1,2-dihydro-2-oxo-1,8-naphthyridin-3-yl]-N′-(2,6-diisopropyl-4-aminophenyl)urea hydrochloride], the “HPLC Area Percentage (%)” value runs as follows: (Initial value, before storage at 60° C. / 75% R.H.) 97.7%; (storage period 2 weeks at 60° C., relative humidity 75%) 94.6%; (storage period 4 weeks at 60° C., relative humidity 75%) 92.7%.

`CCCCn1c(=O)c(NC(=O)Nc2c(C(C)C)cc(N)cc2C(C)C)c(-c2cccc(OCCCO)c2)c2cccnc21` [Example 1, N-[1-butyl-4-[3-[3-(hydroxy)propoxy]phenyl]-1,2-dihydro-2-oxo-1,8-naphthyridin-3-yl]-N′-(2,6-diisopropyl-4-amino-phenyl)urea hydrochloride monohydrate]: the “stability compared with the amorphous hydrochloride” value (60° C., 75% R.H., 4 weeks, conclusion in words from Table 2) is recorded as “quite excellent in stability”.

The values above are taken from patent US7067528B2, “1, 2-dihydro-2-oxo-1, 8-naphthyridine derivative” (Sumitomo Pharmaceuticals Co., Ltd., priority 2001, dated 2006).
